Results reported in patent US20190021976A1, “COMPOSITION FOR PREVENTING, IMPROVING OR TREATING PHOTOAGING OF SKIN COMPRISING DHPV” (SUNGKWANG MEDICAL FOUNDATION, priority 2016, published 2019).

How the values were obtained:
IVL (involucrin) = experiment: Western blot of IVL (involucrin) expression in UV-irradiated human skin cells; format: cell-based
Protocol: (§1) First, aging was induced by irradiation with 0.1 J/cm^2 UV on human skin cells (hypodermis and epidermis were separated using HaCaT cell line purchased from ATCC and human body derived Foreskin, and primary cell culture was used). Next, DHPV, a metabolite of cacao, prepared in 1-1 was treated 0.5, 1 nM, respectively, and cells were obtained.
The expression level of IVL (involucrin) which is one of aging markers of epidermal cells was confirmed by Western blot. Cells were degraded using cell dissolution buffer containing protease inhibitor cocktail kit (P3100-005; GenDEPOT, Barker, Tex.), and phosphatase inhibitor (sc-45065; Santa Cruz Biotechnology, Santa Cruz, Calif.) (#9803; Cell SignalingTechnology, Danvers, Mass.). The aliquot containing 25 ug of cell lysates was separated by electrophoresis on SDS-polyacrylamide gel, and then transferred to nitrocellulose membrane (Amersham, Buckinghamshire, UK) for 180 min at 75 V and […] on a transfer buffer (25 mM Tris, 192 mM glycine, 20% [v/v] methanol [pH 8.3]). The membrane was blocked with PBS of 3% (w/v) BSA containing 0.1% (v/v) Tween-20 for 60 min, and then cultured with anti-involucrin (Santacruz, sc28557) antibody. HRP-combined goat anti-rabbit IgG (1:1000; sc 2004, SantaCruz) was used as a secondary antibody. ECL lumi Femto solution A/B (Dogen, Seoul, Korea) was used to develop blots.

PFN1 = experiment: Western blot of PFN1 expression in UV-irradiated human skin cells; format: cell-based; conditions: 0.1 J/cm^2 UV, DHPV 0.5, 1 nM, FIG. 2
Protocol: as §1
The expression level of PFN1 as a novel aging marker of epidermal cells was confirmed with Western blot by the same method as the above method except using anti-PFN1 (Abcam, ab118984) antibody instead of anti-involucrin (Santacruz, sc28557) antibody and HRP-combined goat anti-mouse IgG (1:3000; sc 2005, SantaCruz) instead of HRP-combined goat anti-rabbit IgG (1:1000; sc 2004, SantaCruz).

AP-1 = AP-1 luciferase reporter gene assay in UVB-irradiated hypodermis fibroblasts; format: cell-based, human; conditions: DHPV treatment, FIG. 3B
Protocol: (§2) First, human derived hypodermis fibroblasts (hypodermis and epidermis were separated using human body derived Foreskin and the primary cell culture was used) were cultured in the DMEM medium containing 10% FBS (fetal bovine serum), and then cultured in serum free media for 24 hrs and UVB was irradiated. Next, cells were cultured in a medium containing serum or a medium containing 1-41M DHPV for 24 hrs, thereby collecting cells.
AP-1 was obtained by inoculating pGF-AP1-mCMV-EF1-Puro vector (System Biosciences, CA) and a package vector, pMD2.0G and psPAX (Addgene Inc, Cambridge, Mass.) to HEK293T cell and in 36 hrs, viral particles were obtained using […] injection filter, in order to measure activity changes by UVB irradiation through luciferase reporter gene assay. Next, it was inoculated to hypodermis fibroblasts, and cells that injection with puromycin (Sigma, MO, […]) was successes were obtained. Then the activity of AP-1 was measured by using luciferase assay kit (Promega, Madison, Wis.) after culturing cells in the same manner with the hypodermal fibroblast culturing method and treating with DHPV.

MMP-1 = MMP-1 real time PCR in UVB-irradiated human derived hypodermis fibroblasts; format: cell-based; conditions: medium containing DHPV for 24 hrs, FIG. 3A
Protocol: as §2
In order to confirm changes of mRNA expression level of MMP-1, mRNA was obtained using RNAiso Plus (Takara Bio Inc., Shiga, Japan). Next, CDNA was synthesized and prepared using PrimeScript™ 1st Plus (Takara Bio Inc., Shiga, Japan), and real time PCR was conducted using IQ SYBR (Bio-Rad Laboratories). The primer sequences used in conducting PCR were as same as the following Table 1.

[1] = test system: Involucrin (IVL) DNA promoter region; experiment: Methylation specific PCR of IVL promoter in UV-irradiated human skin cells; format: cell-based; conditions: FIG. 4
Description: The aging was induced by irradiation with 0.1 J/cm^2 UV on human skin cells (hypodermis and epidermis were separated using HaCaT cell line purchased from ATCC and human body derived Foreskin, and primary cell culture was used). DNA of the cells was extracted using NucleoSin® Tissue Kit (Macherey-Nagel, Düren, Germany). The extracted DNA was quantified using Nano Drop and its quality was confirmed. In the extracted DNA, unmethylated Cytosine residues were converted to Uracil residues by treating Bisulfite using EZ DNA Methylation-Lightning™ Kit (Zymoresearch, CA, USA) for methylation analysis.
Distilled water was added to Bisulfited DNA 100 ng, primer pair (20 pmole) respectively, 1 uL, TaKaRa EpiTaq HS (5 U/μl) 0.25 uL, 10× EpiTaq PCR Buffer (Mg2^+ free) 5 uL, 25 mM MgCl2 5 uL, dNTP Mixture (2.5 mM each) 6 uL to be 50 uL of the final volume, and then after reacting for […] at 98° C., the procedure of 10 sec at 98° C., 1 min at 55° C., and 30 sec at 72° C. as 40 cycles was repeated and reacted. Then, after extending for 5 min at 72° C., the result was analyzed in 2% (w/v) agarose gel.
Methylation of IVL promoter by DHPV and relative methylation tendency were analyzed by methylation specific PCR which can relatively compare methylation or non-methylation of genes according to band intensity on the electrophoresis. […]

[2] = test system: HaCaP cell line and hypodermal cells isolated from human derived foreskin; experiment: Biostability: cell viability (Ez-cytox); format: cell-based; conditions: FIG. 5
Protocol: In order to evaluate DHPV biostability, HaCaP cell line and hypodermal cells isolated from human derived foreskin were inoculated (2×10^4 cell each) and cultured on the 24 well plate and stabilized. Then, the cells were cultured in serum free media for 24 hrs and 48 hrs.

For `O=C1CCC(Cc2ccc(O)c(O)c2)O1` (centres unmarked) [DHPV, 5-(3′,4′-Dihydroxyphenyl)-Γ-valerolactone], the “concentration exhibiting excellent skin aging-preventing function” value (IVL (involucrin); based on skin cells) was 1 nM, the “expression level of the IVL marker (amount of UV-increased IVL)” value (IVL (involucrin); human skin cells, 0.1 J/cm^2 UV, DHPV 0.5, 1 nM, FIG. 2) was “reduced in a concentration-dependent manner” and the “expression level of the PFN1 marker” value (PFN1) was “increased in a concentration-dependent manner”. The “activity of AP-1” value (AP-1) was “recovered similarly to the control group”, the “mRNA expression of MMP-1” value (MMP-1) was “recovered similarly to the control group” and the “methylation of Involucrin (IVL) DNA promoter region induced by photoaging” value ([1]; 0.1 J/cm^2 UV, methylation specific PCR) was “inhibited methylation”. The “intensity of methylation band” value ([1]; UV treated cells when treating DHPV, electrophoresis) was “decreased” and the “biostability (cell viability)” value [2] was “shown similarly to that of control group”.
